These results are taken from patent US7999137B2, “Pesticide bi-phenyl-amidine derivatives” (Bayer Cropscience AG, priority 2006, dated 2011).

A short description of one data set: logP by HPLC on reversed-phase column (C 18), EEC Directive 79/831 Annex V.A8. Format: physicochemical. Conditions: HPLC reversed-phase C 18; 40° C.; 0.1% aqueous formic acid and acetonitrile, linear gradient 10% to 90% acetonitrile. On the procedure:
Temperature: 40° C.; Mobile phases: 0.1% aqueous formic acid and acetonitrile; linear gradient from 10% acetonitrile to 90% acetonitrile.
Calibration was carried out using unbranched alkan-2-ones (comprising 3 to 16 carbon atoms) with known logP values (determination of the logP values by the retention times using linear interpolation between two successive alkanones).
On to `CCN(C)C=Nc1cc(C)c(-c2ccc(OC(C)C)c(F)c2)cc1C` [Compound 172], for which the “log p (HCOOH)” value was found to be 2.37.

`CCc1cc(-c2ccc(OCc3ccccc3)cc2)ccc1N=CN(C)CC` [Compound 60]: the “log p (HCOOH)” value is 2.39.

Take `CCN(C)C=Nc1cc(C)c(-c2ccc(OCc3ccccc3)cc2)cc1C` [Compound 48]: the “log p (HCOOH)” value turned out to be 2.55. Same read-out and setting: with `CCN(C)C=Nc1ccc(-c2ccc(C(C)=NOC)cc2)cc1C` [Compound 31] the figure was 2.02; with `CCN(C)C=Nc1ccc(-c2ccc(OCc3ccccc3)cc2)cc1Cl` [Compound 72], 2.48. As for `CCN(C)C=Nc1ccc(-c2ccc(C#N)cc2)cc1C` [Compound 130], the “log p (HCOOH)” value amounted to 1.54. The same measure, in the same setting: with `C=CCN(C)C=Nc1cc(C)c(-c2ccc(C(C)=NOCC)cc2)cc1C` [Compound 140] the figure was 2.60; with `CCN(C)C=Nc1cc(C)c(-c2ccc(C(F)(F)F)cc2)cc1C` [Compound 132], 2.19; with `CCN(C)C=Nc1ccc(-c2ccc(Oc3ccccc3)cc2)cc1C(F)(F)F` [Compound 89], 2.65. Consider `Cc1ccc(-c2cc(C)c(N=CN3CCCCC3)cc2C)cc1Cl` [Compound 149], for which the “log p (HCOOH)” value amounted to 2.53. Still for that read-out and setting: the value for `CCN(C)C=Nc1cc(C)c(-c2ccc(C3CCCCC3)cc2)cc1C` [Compound 165] was 3.18; that for `CCc1cc(-c2ccc(C(C)=NOC)cc2)ccc1N=CN(C)CC` [Compound 53] was 2.19; that for `CCN(C)C=Nc1ccc(-c2ccc(Cl)c(Cl)c2)cc1C(F)(F)F` [Compound 81] was 2.57. For `CCN(C)C=Nc1ccc(-c2ccc(C(C)=NOC)cc2)cc1C(F)(F)F` [Compound 78], the “log p (HCOOH)” value is listed as 2.24. For the molecule `CCN(C)C(S)=Nc1cc(C)c(-c2ccc(C(C)(C)C)cc2)cc1C` [Compound 28], the “log p (HCOOH)” value is recorded as 4.58. Turning to `CCN(C)C=Nc1ccc(-c2ccc(F)c(F)c2F)cc1C(F)(F)F` [Compound 79], the “log p (HCOOH)” value was 2.29. Same read-out and setting: with `CCN(C)C=Nc1ccc(-c2ccc(OC)cc2)cc1F` [Compound 88] the figure was 1.59. For the molecule `C=CCN(C)C=Nc1cc(C)c(-c2ccc(C(F)(F)F)c(Cl)c2)cc1C` [Compound 144], the “log p (HCOOH)” value came to 2.70. On to `CCN(C)C=Nc1cc(C)c(-c2cccc(C(C)C)c2)cc1C` [Compound 178], for which the “log p (HCOOH)” value stood at 2.42.

Turning to `CCN(C)C=Nc1ccc(-c2ccc(Cl)c(C)c2)cc1C` [Compound 108], the “log p (HCOOH)” value is 2.14. On the same count and under the same terms, the value for `CCN(C)C=Nc1ccc(-c2ccc(Cl)c(C)c2)cc1Cl` [Compound 110] was 2.13; that for `CCN(C)C=Nc1cc(OC)c(-c2ccc(OC)c(Cl)c2)cc1OC` [Compound 97] was 1.83; that for `CCN(C)C=Nc1ccc(-c2ccc(C(C)(C)C)cc2)cc1Cl` [Compound 1] was 2.44.

As for `CCN(C)C=Nc1ccc(-c2ccc(C(C)=NOC)cc2)cc1Cl` [Compound 65], the “log p (HCOOH)” value is 2.00. Take `CCN(C)C=Nc1ccc(-c2ccc(C(C)(C)C)cc2)cc1C(F)(F)F` [Compound 2]: the “log p (HCOOH)” value stood at 2.83. In the case of `CCN(C)C=Nc1cc(C)c(-c2ccc(F)c(F)c2)cc1C` [Compound 46], the “log p (HCOOH)” value stood at 1.98.

As to `CCN(C)C=Nc1cc(C)c(-c2cccc3ccccc23)cc1C` [Compound 135], the “log p (HCOOH)” value is 2.13. The same measure, in the same setting: with `CCN(C)C=Nc1ccc(-c2ccc(COC)cc2)cc1C(F)(F)F` [Compound 93] the figure was 1.76; with `CCN(C)C=Nc1cc(C)c(-c2ccc(Cl)c(Cl)c2)cc1C` [Compound 44], 2.27. Take `Cc1cc(-c2ccc(C(C)(C)C)cc2)c(C)cc1N=CN1CCCCC1C` (centres unmarked) [Compound 117]: the “log p (HCOOH)” value came to 3.02. On the same count and under the same terms, with `CCN(C)C=Nc1cc(C)c(-c2ccc(Cl)c(C(F)(F)F)c2)cc1Cl` [Compound 107] the figure was 2.30.

For `CCN(C)C=Nc1cc(C)c(-c2ccc(F)c(F)c2F)cc1C` [Compound 43], the “log p (HCOOH)” value came out at 2.32.

As for `CCN(C)C=Nc1ccc(-c2cccc(Cl)c2)c(Cl)c1` [Compound 96], the “log p (HCOOH)” value is reported as 1.92. Regarding `CCN(C)C=Nc1ccc(-c2ccc(F)c(Cl)c2)cc1C` [Compound 5], the “log p (HCOOH)” value was 2.00. On to `CCN(C)C=Nc1cc(C)c(-c2cccc([Si](C)(C)C)c2)cc1C` [Compound 179], for which the “log p (HCOOH)” value is given as 3.00.

For the molecule `CCN(C)C=Nc1cc(C)c(-c2ccc(F)c(C)c2)cc1C` [Compound 45], the “log p (HCOOH)” value amounted to 2.08. Regarding `C=CCN(C)C=Nc1cc(C)c(-c2ccc(C(C)C)cc2)cc1C` [Compound 157], the “log p (HCOOH)” value is 2.60. For `Cc1cc(-c2ccc(C(C)(C)C)cc2)c(C)cc1N=CN(C)C(C)C` [Compound 161], the “log p (HCOOH)” value was 2.77. Take `CCN(C)C=Nc1ccc(-c2ccc(F)c(F)c2)cc1C(F)(F)F` [Compound 83]: the “log p (HCOOH)” value turned out to be 2.09. Take `CCN(C)C=Nc1cc(C)c(-c2ccc(C(C)C)cc2)cc1C` [Compound 155]: the “log p (HCOOH)” value is 2.34. Turning to `Cc1cc(-c2ccc(C(C)(C)C)cc2)ccc1N=C1CCCCN1` [Compound 138], the “log p (HCOOH)” value was 2.45. On the same count and under the same terms, with `Cc1cc(-c2ccc(C(C)(C)C)c(F)c2)c(C)cc1N=CN(C)C(C)C` [Compound 169] the figure was 2.74. Turning to `CCN(C)C=Nc1ccc(-c2ccc(F)c(C)c2)cc1C` [Compound 33], the “log p (HCOOH)” value was found to be 2.04. For `CCN(C)C=Nc1cc(C)c(-c2ccc(S(=O)(=O)C(F)(F)F)cc2)cc1C` [Compound 174], the “log p (HCOOH)” value came to 2.21. As for `Cc1cc(-c2ccc([Si](C)(C)C)cc2)c(C)cc1N=CN1CCCCC1` [Compound 154], the “log p (HCOOH)” value is listed as 3.16. Turning to `CCN(C)C=Nc1cc(C)c(-c2ccc(Cl)cc2)cc1C` [Compound 125], the “log p (HCOOH)” value came out at 2.18.

Consider `CCc1cc(-c2ccc(Cl)cc2Cl)ccc1N=CN(C)CC` [Compound 57], for which the “log p (HCOOH)” value came to 2.26. Consider `CCN(C)C=Nc1cc(C)c(-c2ccc(C)cc2)cc1C` [Compound 131], for which the “log p (HCOOH)” value was found to be 2.01.

For the molecule `CCN(C)C=Nc1ccc(-c2ccc(F)c(F)c2)cc1F` [Compound 84], the “log p (HCOOH)” value was 1.68. As to `CCN(C)C=Nc1cc(C)c(-c2ccc(C(C)=NOC)cc2)cc1C` [Compound 42], the “log p (HCOOH)” value was determined as 2.24. Turning to `CCC(C)c1ccc(-c2cc(C)c(N=CN(C)CC)cc2C)cc1` (centres unmarked) [Compound 163], the “log p (HCOOH)” value is recorded as 2.92. Turning to `CCN(C)C=Nc1cc(C)c(-c2ccc(OC(C)(C)C)cc2)cc1C` [Compound 160], the “log p (HCOOH)” value is 2.28. Take `CCN(C)C=Nc1ccc(-c2ccc(Br)cc2)cc1C(F)(F)F` [Compound 80]: the “log p (HCOOH)” value was 2.24. On the same count and under the same terms, with `CCCN(C)C=Nc1cc(C)c(-c2ccc([Si](C)(C)C)cc2)cc1C` [Compound 152] the figure was 3.10; with `CCCN(C)C=Nc1cc(C)c(-c2ccc(C)c(Cl)c2)cc1C` [Compound 147], 2.56; with `CCN(C)C=Nc1ccc(-c2ccc(C=NOC)cc2)cc1C` [Compound 30], 1.94. Same read-out and setting: the value for `Cc1cc(-c2ccc(Cl)cc2)c(C)cc1N=C1NCCCN1` [Compound 122] was 2.08; that for `CCN(C)C=Nc1cc(C)c(-c2ccc(COC)cc2)cc1C` [Compound 49] was 1.76; that for `CCN(C)C=Nc1ccc(-c2ccc(OC)c(C)c2)cc1Cl` [Compound 115] was 1.86. The same measure, in the same setting: with `CCN(C)C=Nc1ccc(-c2ccc(OCc3ccccc3)cc2)cc1C(F)(F)F` [Compound 91] the figure was 2.43; with `CCON=C(C)c1ccc(-c2cc(C)c(N=CN(C)CC)cc2C)cc1` [Compound 139], 2.55. As to `CC(C)N(C)C=Nc1ccc(-c2cccc(Cl)c2)c(Cl)c1` [Compound 101], the “log p (HCOOH)” value was determined as 2.04.

For the molecule `CCN(C)C=Nc1ccc(-c2ccc(C(F)(F)F)cc2)cc1C(F)(F)F` [Compound 25], the “log p (HCOOH)” value is 2.54.

With `Cc1cc(-c2ccc(F)cc2)c(C)cc1N=C1NCCN1` [Compound 124], the “log p (HCOOH)” value amounted to 1.72. As for `CCc1cc(-c2ccc(OC)c(OC)c2)ccc1N=CN(C)CC` [Compound 62], the “log p (HCOOH)” value came to 1.68. With `CCN(C)C=Nc1ccc(-c2ccc(C=NOC)cc2)cc1Cl` [Compound 64], the “log p (HCOOH)” value was 1.87. Regarding `CCN(C)C=Nc1ccc(-c2ccc(OCc3ccccc3)cc2)cc1F` [Compound 92], the “log p (HCOOH)” value is reported as 2.27.

With `CCN(C)C=Nc1ccc(-c2ccc(Cl)c(Cl)c2)cc1Cl` [Compound 66], the “log p (HCOOH)” value was 2.25. For the molecule `CCc1cc(-c2ccc(Cl)c(F)c2)ccc1N=CN(C)CC` [Compound 52], the “log p (HCOOH)” value came out at 2.31. With `CCON=C(C)c1ccc(-c2cc(C)c(N=CN3CCCCC3)cc2C)cc1` [Compound 141], the “log p (HCOOH)” value is listed as 2.22.

With `CCN(C)C=Nc1cc(C)c(-c2ccc(C(C)(C)C)c(Cl)c2)cc1C` [Compound 168], the “log p (HCOOH)” value is 2.85. In the case of `CCN(C)C=Nc1cc(C#N)c(-c2ccc(C(C)(C)C)cc2)cc1C` [Compound 177], the “log p (HCOOH)” value stood at 2.21. Turning to `CCN(C)C=Nc1cc(C)c(-c2ccc(OC(C)C)c(Cl)c2)cc1C` [Compound 171], the “log p (HCOOH)” value is recorded as 2.62. Take `CCc1cc(-c2ccc(C=NOC)cc2)ccc1N=CN(C)CC` [Compound 51]: the “log p (HCOOH)” value turned out to be 2.09. Turning to `CCN(C)C=Nc1ccc(-c2ccc(OC)c(OC)c2OC)cc1C(F)(F)F` [Compound 11], the “log p (HCOOH)” value is on record as 1.84. As to `Cc1cc(-c2ccc(F)cc2)c(C)cc1N=C1NCCCN1` [Compound 123], the “log p (HCOOH)” value came out at 1.81.

Still in this data set, the particulars now being: reversed-phase HPLC column (C 18); pH 2.3; HPLC, 0.1% aqueous formic acid and acetonitrile, 40° C.; read-out: log P (pH 2.3).
Consider `CCN(C)/C=N/c1cc(C)c(Br)cc1C` [Intermediate (Va-1), N′-(4-bromo-2,5-dimethylphenyl)-N-ethyl-N-methylimidoformamide], for which the chromatographic logP was determined as 1.36.
